Data from ChEMBL document CHEMBL4602709 (ACS Med Chem Lett, 2020).

Columns and labels:
[1] = organism: Homo sapiens; test: Inhibition of VEGFR (unknown origin) assessed as residual activity at 10 uM incubated for 5 mins in presence of [gamma-33ATP] by scintillation counting based radiometry assay relative to control
[2] = molecular target: T1, Discoidin domain-containing receptor 2 (Homo sapiens) (UniProt Q16832); test: Inhibition of DDR2 (unknown origin) assessed as residual activity at 10 uM incubated for 5 mins in presence of [gamma-33ATP] by scintillation counting based radiometry assay relative to control
T1 sequence (whole entry): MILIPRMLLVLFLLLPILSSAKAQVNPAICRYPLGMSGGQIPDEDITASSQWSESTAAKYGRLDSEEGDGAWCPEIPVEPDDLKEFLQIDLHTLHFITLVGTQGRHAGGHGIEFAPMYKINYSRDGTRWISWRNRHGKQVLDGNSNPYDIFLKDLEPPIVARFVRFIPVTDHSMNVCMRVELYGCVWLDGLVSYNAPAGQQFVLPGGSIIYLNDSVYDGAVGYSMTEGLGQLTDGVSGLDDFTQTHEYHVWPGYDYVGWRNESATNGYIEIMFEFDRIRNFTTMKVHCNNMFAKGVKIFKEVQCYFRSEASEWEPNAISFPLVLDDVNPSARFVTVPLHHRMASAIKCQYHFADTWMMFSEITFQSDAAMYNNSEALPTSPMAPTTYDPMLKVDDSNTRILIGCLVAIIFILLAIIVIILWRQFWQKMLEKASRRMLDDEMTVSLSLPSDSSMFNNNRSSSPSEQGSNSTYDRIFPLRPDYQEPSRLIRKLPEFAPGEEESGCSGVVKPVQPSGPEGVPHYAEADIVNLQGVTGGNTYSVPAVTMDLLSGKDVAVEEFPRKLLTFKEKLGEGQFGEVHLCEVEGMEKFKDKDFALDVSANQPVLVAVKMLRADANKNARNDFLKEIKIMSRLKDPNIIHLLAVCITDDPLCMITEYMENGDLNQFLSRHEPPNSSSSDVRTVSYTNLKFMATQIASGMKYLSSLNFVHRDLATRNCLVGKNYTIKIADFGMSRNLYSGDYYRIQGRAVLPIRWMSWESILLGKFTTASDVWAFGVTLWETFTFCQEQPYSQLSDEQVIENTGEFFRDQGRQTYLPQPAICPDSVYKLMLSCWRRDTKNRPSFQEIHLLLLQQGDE

[3] = molecular target: T2, Mitogen-activated protein kinase kinase kinase kinase 3 (Homo sapiens) (UniProt Q8IVH8); test: Inhibition of MAP4K3 (unknown origin) assessed as residual activity at 10 uM incubated for 5 mins in presence of [gamma-33ATP] by scintillation counting based radiometry assay relative to control
T2 sequence (whole entry): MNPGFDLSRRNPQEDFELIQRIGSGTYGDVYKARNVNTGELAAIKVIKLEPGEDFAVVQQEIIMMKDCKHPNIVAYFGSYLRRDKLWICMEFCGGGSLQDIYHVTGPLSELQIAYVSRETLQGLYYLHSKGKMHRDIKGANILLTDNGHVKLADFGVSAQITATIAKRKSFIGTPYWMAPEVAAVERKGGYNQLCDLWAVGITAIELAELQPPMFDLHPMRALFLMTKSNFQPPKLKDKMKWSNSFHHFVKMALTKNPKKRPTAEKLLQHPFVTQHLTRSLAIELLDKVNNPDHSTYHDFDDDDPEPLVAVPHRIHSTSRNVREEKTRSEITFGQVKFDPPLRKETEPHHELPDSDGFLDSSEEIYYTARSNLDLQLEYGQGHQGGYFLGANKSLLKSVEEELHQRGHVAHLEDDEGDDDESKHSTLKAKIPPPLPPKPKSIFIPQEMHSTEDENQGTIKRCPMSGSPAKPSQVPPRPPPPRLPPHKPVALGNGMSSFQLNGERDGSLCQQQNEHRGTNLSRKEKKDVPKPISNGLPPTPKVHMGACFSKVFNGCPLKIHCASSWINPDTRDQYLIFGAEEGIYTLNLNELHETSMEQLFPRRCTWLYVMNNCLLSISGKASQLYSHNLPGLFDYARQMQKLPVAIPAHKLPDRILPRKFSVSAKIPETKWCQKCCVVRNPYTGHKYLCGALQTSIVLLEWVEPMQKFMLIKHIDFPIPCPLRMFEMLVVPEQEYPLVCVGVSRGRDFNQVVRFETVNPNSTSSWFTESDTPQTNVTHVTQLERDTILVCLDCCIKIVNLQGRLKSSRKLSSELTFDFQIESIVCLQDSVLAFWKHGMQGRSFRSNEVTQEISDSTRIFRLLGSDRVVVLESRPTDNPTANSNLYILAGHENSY

[4] = Metabolic stability in human liver microsomes assessed as half life at 3 uM measured up to 30 mins in presence of NADPH by […] analysis; type: ADME, Microsome
[5] = molecular target: Serine/threonine-protein kinase Nek6 (Homo sapiens, UniProt Q9HC98); test: Inhibition of NEK6 (unknown origin) assessed as residual activity at 10 uM incubated for 5 mins in presence of [gamma-33ATP] by scintillation counting based radiometry assay relative to control
Sequence of Serine/threonine-protein kinase Nek6 (Q9HC98 whole entry): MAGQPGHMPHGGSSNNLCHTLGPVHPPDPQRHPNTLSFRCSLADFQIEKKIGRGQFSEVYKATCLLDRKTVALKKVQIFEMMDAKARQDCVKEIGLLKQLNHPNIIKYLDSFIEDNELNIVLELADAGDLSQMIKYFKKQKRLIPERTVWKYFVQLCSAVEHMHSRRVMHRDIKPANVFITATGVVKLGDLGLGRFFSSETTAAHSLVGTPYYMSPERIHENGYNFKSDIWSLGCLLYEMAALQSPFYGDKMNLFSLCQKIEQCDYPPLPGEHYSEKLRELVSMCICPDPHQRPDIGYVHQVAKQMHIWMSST

[6] = molecular target: Tyrosine-protein kinase Lck (Homo sapiens, UniProt P06239); test: Inhibition of LCK (unknown origin) assessed as residual activity at 10 uM incubated for 5 mins in presence of [gamma-33ATP] by scintillation counting based radiometry assay relative to control
Sequence of Tyrosine-protein kinase Lck (P06239 2-509 limits assumed): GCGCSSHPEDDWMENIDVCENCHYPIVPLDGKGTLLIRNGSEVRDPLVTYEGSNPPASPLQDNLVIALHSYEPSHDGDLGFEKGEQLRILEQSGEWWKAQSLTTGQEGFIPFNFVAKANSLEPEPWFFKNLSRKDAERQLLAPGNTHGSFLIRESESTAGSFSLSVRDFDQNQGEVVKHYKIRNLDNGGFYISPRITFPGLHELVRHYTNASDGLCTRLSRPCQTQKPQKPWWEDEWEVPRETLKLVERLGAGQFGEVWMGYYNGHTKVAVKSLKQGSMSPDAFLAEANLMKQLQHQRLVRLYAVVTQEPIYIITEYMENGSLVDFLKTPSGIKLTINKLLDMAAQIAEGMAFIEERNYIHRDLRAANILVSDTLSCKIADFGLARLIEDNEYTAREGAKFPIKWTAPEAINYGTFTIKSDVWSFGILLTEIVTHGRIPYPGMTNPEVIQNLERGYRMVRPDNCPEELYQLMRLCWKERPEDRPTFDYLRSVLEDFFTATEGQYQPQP

Row | Activity [1] | Activity [2] | Activity [3] | half-life at 3 µM [4] | Activity [5] | Activity [6] | Compound
1 | 13% | 14% | 14% | 39.8 min | 9% | 17% | Cc1ccc(C(=O)Nc2ccc(CN3Cc4cn[nH]c4C3)c(Cl)c2)cc1C#Cc1cnc2cccnn12
2 | 75% | 4% | 107% | 7.89 min | 97% | 37% | Cc1cn(-c2cc(NC(=O)c3ccc(C)c(Nc4nccc(-c5cccnc5)n4)c3)cc(C(F)(F)F)c2)cn1 [NILOTINIB]
